# Patent publication US20060040870A1, “Enhancement of apoptosis by caspase-9 inhibitors” (priority 2004, published 2006)
# The star is where a group is joined. Cbz = O=C(OCc1ccccc1)*; CH2F = FC*
# Assays:
# [1] = system: caspase-9 deficient BLIN-4L; assay: Apoptotic sensitivity of BLIN-4L made deficient in caspase-9 by siRNA, Annexin V; settings: Annexin V+ events minus DMSO
# [2] = system: leukemia/lymphoma cells; assay: Pro-apoptotic activity of caspase inhibitor sequences (Table 2); format: cell-based; set-up: key: “−” is no activity; ++++ is maximum activity
# Description: Caspases are constitutively express in cells, and are usually in their pro-form. In response to an incident, such as irradiation or chemotherapy, the pro-form of the caspase is converted into the activated state. Certain compounds are known that can inhibit caspases. For example, the pan-caspase (PCi) VAD can block all caspases. […] For example, C2i inhibits caspase-2. This particular inhibitor is very dose dependent.
# [3] = system: BLIN-3 cells; assay: Apoptosis by Annexin V staining and flow cytometry, BLIN-3; format: cell-based, human; settings: BLIN-3 removed from adherent fibroblasts, 50 μM
# Method: (§1) Flow cytometry. Quantitation of apoptotic events was conducted using a FACS Calibur (BD Immunocytometry Systems). All analyses were conducted on cells with lymphoid light scatter characteristics (i.e., low to medium forward scatter and low 90° side scatter).
# (§2) iii. Annexin V. FITC-labeled Annexin V (BD Pharmingen, San Diego, Calif.) was used to detect external phosphatidylserine residues appearing on the external surface of early apoptotic cells (Koopman Blood. 1994;84:1415-1420). Cells were stained according to the manufacturers recommendations.
# (§3) General experimental strategy. BLIN cell lines were removed from fibroblast monolayers, washed once and resuspended to 7.5×10^5/ml in X-VIVO 10. Two hundred μL of resuspended cells were added to 96-well flat-bottom microtiter plates (ISC Bioexpress, Kaysville, Vt.), followed by 0.5-1.0 μL of caspase inhibitors in DMSO. An identical volume of DMSO alone was added to separate wells as a vehicle control. This final DMSO concentration of 0.25-0.5% vol/vol had no adverse affect on any of the BLIN cell lines. At the indicated times the entire content of individual wells was harvested and stained in the fluorescent protocols described above.
# The inventors carried out experiments to test the influence of specific amino acid substitutions on the proapoptotic activity Z-LEHD-fmk. Cells were cultured for 24 hours with various μM concentrations of Z-LEDH-fmk or single amino acid substitution of the parent peptide. All values in the following Table 3 represent the percentage of total Annexin V+ cells (PI+ and PI−) minus the percentage present in culture with DMSO alone (BLIN-2=3%; BLIN-3+7%; BLIN4L=5%).
# [4] = system: BLIN cell lines; assay: Enhancement of apoptosis in BLIN cell lines (flow cytometry); format: cell-based, human; settings: BLIN cell lines
# Method: as §1
# i. Mitochondrial transmembrane potential (Δψm). The cationic lipophilic fluorescent dye tetramethylrhodamine, ethyl ester, perchlorate (TMRE) was purchased from Molecular Probes, Inc. (Eugene, Oreg.). TMRE has a high degree of membrane permeability and accumulates into mitochondria in accord with the Nernstian equation (Farkas Biophys J. 1989;56:1053-1069). Cells were washed once and re-suspended to 0.5-1.0×10^6/ml in X-VIVO 10. TMRE was added to a final concentration of 50 nM and the cells were incubated in the dark at 37° C. for 15 minutes. Cells were then washed 2× in PBS, resuspended in PBS containing 2 μg/ml of propidium iodide (PI), and immediately analyzed. The protonophore […] (50 μM, CCCP, Sigma) was used as a positive control to effect loss of Δψm in 100% of cells.
# ii. YO-PRO-1. The green fluorescent DNA intercalant dye YO-PRO-1 (Idziorek J Immunol Methods. 1995;185:249-258) was purchased from Molecular Probes as the Vybrant Apoptosis Assay Kit #4. Dual staining with YO-PRO and PI allows for the detection of early apoptotic cells (YO-PRO+/PI−) that have undergone initial changes in permeability to small molecules. Cells were stained according to the manufacturers recommendations.
# as §2, §3
# [5] = system: CD33+ myeloid cells; assay: Annexin V staining of sorted cord blood-derived CD33+ myeloid cells removed from MS-5 stroma; format: cell-based, human; settings: cultured 18 hours, DMSO control 27.9 ± 3.9, Time 0 <10
# [6] = system: BLIN-3 cells; assay: Loss of mitochondrial transmembrane potential (TMRE) and YO-PRO permeability in BLIN-3; format: cell-based, human; settings: BLIN-3 removed from adherent fibroblasts, 50 μM, compared to DMSO
# Method: Numbers in the histograms indicate the percentage of PI^- cells that underwent a loss of Δψm. Numbers in the contour plots indicate the percentage of Annexin V^+/PI^- cells. […] Numbers in the contour plots indicate the percentage of YO^- PRO^+/PI^- cells. Numbers in the histograms indicate the percentage of PI^- cells that underwent a loss of Δψm. Flow cytometry. Quantitation of apoptotic events was conducted using a FACS Calibur (BD Immunocytometry Systems). All analyses were conducted on cells with lymphoid light scatter characteristics (i.e., low to medium forward scatter and low 90° side scatter). i. Mitochondrial transmembrane potential (Δψm). The cationic lipophilic fluorescent dye tetramethylrhodamine, ethyl ester, perchlorate (TMRE) was purchased from Molecular Probes, Inc. (Eugene, Oreg.). TMRE has a high degree of membrane permeability and accumulates into mitochondria in accord with the Nernstian equation (Farkas Biophys J. 1989;56:1053-1069). Cells were washed once and re-suspended to 0.5-1.0×10^6/ml in X-VIVO 10. TMRE was added to a final concentration of 50 nM and the cells were incubated in the dark at 37° C. for 15 minutes. […] ii. YO-[…]. The green fluorescent DNA intercalant dye YO-PRO-1 (Idziorek J Immunol Methods. 1995;185:249-258) was purchased from Molecular Probes as the Vybrant Apoptosis Assay Kit #4. […]
# [7] = system: CD19+ B-cell precursors; assay: Annexin V staining of sorted cord blood-derived CD19+ B-cell precursors removed from MS-5 stroma; format: cell-based, human; settings: cultured 18 hours, DMSO control 46.5 ± 1.4, Time 0 1.5
# Method: Normal B-lineage cells. CD19+ B-lineage cells were derived from CD34+ human cord blood stem cells plated on the murine stromal cell line MS-5 (Itoh Exp Hematol. 1989;17:145-153). MS-5 stromal cells were kindly provided by Dr. Paul Kincade (University of Oklahoma Medical Research Foundation), following permission from Professor K. John Mori (Niigata University, Japan). FACS-purified CD34+/CD38+/lineage—cord blood hematopoietic stem cells were plated onto confluent, non-irradiated MS-5 stromal cells in 96-well flat-bottom plates (200 cells/well) containing Minimal Essential Medium supplemented with 10% FBS. Stem cell factor and G-CSF were added at 10 ng/ml (twice weekly) to enhance the emergence of CD19+ B-lineage cells (Nishihara Eur J Immunol. 1998;28:855-864; Ohkawara Leukemia. 1998;12:764-771). […] Wells were then pooled, stained with PE-conjugated anti-CD 19 + propidium iodide (PI), and sorted on a FACSVantage (BD Immunocytometry Systems, San Jose, Calif.). Cord blood CD34+/CD38+/lineage—cells were provided by Valerie McCullar and Dr. Jeff Miller of the University of Minnesota Cancer Center in accordance with the University of Minnesota Institutional Review Board on Human Subjects.
# Flow cytometry. Quantitation of apoptotic events was conducted using a FACS Calibur (BD Immunocytometry Systems). […]
# [8] = system: PARP (caspase-3/caspase-7 substrate); assay: Western blotting of PARP cleavage in BLIN-3 and BLIN-4L; format: cell-based, human; settings: overnight incubation of BLIN-3 and BLIN-4L cells, 50 μM
# Method: Western blotting. This method was conducted essentially as previously described.^20 The antibodies used were: rabbit anti-caspase-2 (catalog # sc-625, Santa Cruz Biotechnology Inc., Santa Cruz, Calif.), rabbit anti-caspase-3 (catalog # 9661, Upstate Cell Signaling Solutions, Waltham, Mass.), rabbit anti-caspase-6 (catalog # 9761, Upstate), rabbit anti-caspase-9 (catalog # 9502, Upstate), mouse anti-PARP (catalog # 556494, Pharmingen), and rabbit anti-Bid (catalog # AF846, R&D Systems). The antibodies to caspase-2 and caspase-9 were generated to the procaspase isoforms, whereas the antibodies to caspase-3 and caspase-6 were generated to cleavage products.
# As expected, inclusion of 50 μM PCi had no effect. The degree of PARP cleavage in the presence of C9i (greater in BLIN-3 than BLIN-4L) correlated with the percentage of Annexin V+ cells (FIG. 3).
Molecule,Pro-apoptotic Activity (after 24 hours) [2],further results
COc1cc([C@@H]2c3cc4c(cc3[C@@H](O[C@@H]3O[C@@H]5CO[C@@H](C)O[C@H]5[C@H](O)[C@H]3O)[C@H]3COC(=O)[C@H]23)OCO4)cc(OC)c1O [etoposide],,apoptotic response of caspase-9 deficient BLIN-4L compared with control siRNA treated cells [1]: no difference
CN[C@@H]1C[C@H]2O[C@@](C)([C@@H]1OC)n1c3ccccc3c3c4c(c5c6ccccc6n2c5c31)C(=O)NC4 [staurosporine],,apoptotic response of caspase-9 deficient BLIN-4L compared with control siRNA treated cells [1]: significantly more sensitive
"Cbz-VDVAD-CH2F [C2i, reference compound]",−,
"Cbz-VEID-CH2F [C6i, reference compound]",−,
LEAD [C9i/H > A],−,
"LEED (printed: Leu-Glu-Glu-Asp) [C9i/H > E, variant of Z-LEHD-fmk, Leu-Glu-Glu-Asp]",−,
LEHD [C91/ΔFMK],−,
"WEHD (printed: Trp-Glu-His-Asp) [C9i/L > W, variant of Z-LEHD-fmk, Trp-Glu-His-Asp]",++++,
"Z-DEVD-fmk [C3i, reference compound]",−,
"Z-VAD-fmk [PCi, reference compound]",−,"appearance of Annexin V+ cells [3]: completely blocked; enhancement of apoptosis [4]: did not enhance apoptosis; percentage of total Annexin V+ cells (PI+ and PI−), mean ± SD [5]: 18.0 ± 3.9 %; loss of Δψm (TMRE) [6]: did not prevent loss of Δψm; percentage of total Annexin V+ cells (PI+ and PI−), mean ± SD [7]: 39.5 ± 1.8 %; cleavage of the caspase-3/caspase-7 substrate PARP [8]: had no effect"
